# Laboratory results reported in patent US20050004029A1, “Methods and compositions for treating vascular leak using hepatocyte growth factor” (priority 2001, published 2005).
# Columns and labels:
# [1] = system: Bovine Pulmonary Artery Endothelium; experiment: Transendothelial electrical resistance (TER) across bovine pulmonary artery endothelium; type: cell-based; details: VEGF 100 ng/ml, Sph 1-P 1 μM, HGF 20 ng/ml
# Protocol: Bovine pulmonary artery endothelial cells were purchased from the American Type Culture Collection (ATCC®, Rockville, Md.) and utilized at passage 19-24. Cells were maintained in Medium 199 (Life Technologies, Rockville, Md.) supplemented with 20% (v/v) colostrum-free bovine serum (CFBS) (Irvine Scientific, Santa Ana, Calif.), 15 μg/ml endothelial cell growth supplement (Upstate Biotechnology, Lake Placid, N.Y.), 1% antibiotic and antimycotic, and 0.1 mM non-essential amino acids (Life Technologies). Human pulmonary artery endothelial cells were purchased from Clonetics (Walkersville, Md.), cultured in EBM-2 complete medium (Clonetics) and utilized at passage 5-10. Human alveolar epithelial cells (A549) were purchased from ATCC® and cultured in the same medium as the bovine endothelial cells, except that the endothelial cell growth supplement was omitted. All cells were maintained at 37° C. in a humidified atmosphere of 5% CO2 and 95% air.
# Electrical resistance of EC monolayers was measured using electrical cell impedance sensor system (Applied Biophysics Inc., Troy, N.Y.) as described in Garcia, J. G. N. et al. (2000) J. Appl. Physiol. 89:2333-2343. Cells grown on gold microelectrodes (10^−3 cm^2) in polycarbonate wells act as insulating particles, and the resistance across the monolayers (transendothelial electrical resistance, or TER) is measured in real time. As cells adhere on the microelectrode and intercellular cell contacts are formed or in response to agents which increase junctional integrity, the TER increases (Garcia, J. G. N. et al. (2001) J. Clin. Invest. 108:689-711). In contrast, cell retraction, rounding, or loss of adhesion is reflected by decreases in TER (Garcia, J. G. N. et al. (2000) J. Appl. Physiol. 89:2333-2343). These measurements provide a highly sensitive biophysical assay that indicates the state of cell shape, focal adhesion, and endothelial barrier function (Giaever, I. and Keese, C. R. (1993) Nature 366:591-592; Tiruppathi, C. et al. (1992) Proc. Natl. Acad. Sci. USA 89:7919-7923). All electrical resistance data are presented as normalized values. Briefly, current was applied across the electrodes by a 4000 Hz AC voltage source with an amplitude of 1 V in series with a 1 MΩ resistance to approximate a constant current source (−1 μA). The small gold electrode and the larger counter electrode (1 cm^2) were connected to a phase-sensitive lock-in amplifier (5301A; EG&G Instruments Corp, Princeton, N.J.) with a built in differential preamplifier (5316A; EG&G Instruments Corp.). The in-phase and out-of-phase voltages between the electrodes were monitored in real time with the lock-in amplifier and converted to scalar measurements of transendothelial impedance, of which resistance was the primary focus. […] For some experiments, total TER was vectorially resolved into components reflecting resistance to current flow beneath the cell layer (α) and resistance to current flow between adjacent cells (Rb) as described in Garcia et al. (2000) supra utilizing the method of Giaiver and Keese which models the endothelial monolayer mathematically (Giaever, I. and Keese, C. R. (1993) Nature 366:591-592). Thus, changes in α reflect alterations in the net state of cell-matrix adhesion, whereas changes in Rb reflect alterations in the integrity of cell-cell adhesion. TER values from each microelectrode were pooled at discrete time points and plotted versus time as the mean±standard error of the mean (Garcia et al. (2000) supra).
# [2] = system: PI-3′ kinase; experiment: Akt phosphorylation by western immunoblotting (PI-3′ kinase activity); type: cell-based
# Protocol: Endothelial cell monolayers grown to confluence in 12-well plates and challenged with HGF were lysed with 100 μl of 2×SDS sample buffer, and cell lysates were transferred into microcentrifuge tubes and boiled for 5 min. After a brief spin, proteins from 10 μl cell lysates were separated on 12% SDS-PAGE and transferred to nitrocellulose (Schleicher & Schuell, Keene, N.H.) (30V, 18 h). After blocking with PBST (PBS with 0.1% Tween 20) containing 5% non-fat milk for 1 hr, nitrocellulose blots were reacted with primary antibodies diluted in PBST containing 5% BSA for 1 hr, washed with PBST (3×10 min), incubated with peroxidase-conjugated secondary antibodies (goat anti-rabbit IgG, 1:10,000 dilution, Sigma; or goat anti-mouse IgG, 1:10,000 dilution, Bio-Rad Labs, Richmond, Calif.) diluted in PBST with 5% non-fat milk for 1 hr and again washed with PBST (3×10 min). Finally, immunoreactive proteins were detected using ECL. The relative intensities of the protein bands were quantified by scanning densitometry.
# To identify key signaling mediators involved in HGF-induced barrier protection, the role of PI-3′-kinase in HGF-stimulated barrier improvement was examined by measuring HGF-dependent phosphorylation of the serine/threonine kinase, Akt, a well-accepted method of defining PI-3′ kinase activity. Cell homogenates were analyzed by western immunoblotting with anti-phospho-Akt[…] antibody. When endothelial monolayers were incubated with HGF (20 ng/ml) for increasing amounts of time (1, 2, 5, 10, 15, 20, 30, 60, or 120 minutes), AKT is rapidly phosphorylated beginning at 2 min with maximal effect plateauing by 5-30 min. When the cells are incubated for 15 minutes with increasing concentrations of HGF (0.5, 1, 2, 5, 10, 20, 50 or 100 ng/ml), activation was […] in response to concentrations as low as 5 ng/ml. […]
# [3] = vs vehicle control, ±SEM, thrombin 100 μM
substance,measurement,setting,value
"HGF: heparin-binding glycoprotein, multifunctional cytokine, ligand of c-Met; purchased from R&D Systems",TER response in words,"[1]; thrombin, 10-60 min",brisk and sustained increase in TER
same,changes in TER 30 min,[1]; [3],+35 ± 5%
same,changes in TER 60 min,[1]; [3],+35 ± 4%
same,changes in TER 10 min,"[1]; vs vehicle control, ±SEM, thrombin 100 μM, (+) increased, (−) decreased",+25 ± 3%
same,onset of Akt phosphorylation,[2]; HGF 20 ng/ml,2 min
same,time of maximal Akt phosphorylation (plateau),[2]; HGF 20 ng/ml,5 to 30 min
same,lowest concentration giving Akt activation,"[2]; HGF 0.5-100 ng/ml, 15 minutes",5 ng/mL
